Results on 4 compounds are retold here after patent US9023789B2, “Amylin analogs and pharmaceutical compositions thereof” (Novo Nordisk A/S, priority 2012, dated 2015).

Series [1] in a line: ASSAY (IV) determination of solubility. In kind it is physicochemical. The gist of the method:
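Solubility measured by UPLC of supernatant after centrifugation, following 18 h at room temperature. Peptide ([…] in water) was diluted 1:1 into 100 mM glycylglycine (pH 3.0, 4.0, 5.0) or bistrispropane (pH 6.0-8.0).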

A short description of series [2]: ASSAY (III) ThT fibrillation assay for physical stability. In kind it is physicochemical. The essentials:
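Physical stability scored by ThT fluorescence (444 nm excitation, 485 nm emission) tracked every 20 min during 37 °C incubation with 960 rpm shaking, ThT at 1 μM final. Values are replicate means with SD at chosen times; HPLC against pramlintide standard gives initial and post-assay soluble concentrations.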

In series [3] the test system is Sprague Dawley (SD) rats. Description: ASSAY (I) efficacy testing on appetite (food intake) using an ad libitum fed rat model. In kind it is in vivo. The following applies: rat. The gist of the method:
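Individual food consumption was logged each hour up to 7 h and again at 24 h, occasionally 48 h, with Grubbs-test outliers removed. Each 200–250 g Sprague Dawley rat, free-feeding in its home cage under reversed lighting, received a single ip, po or sc dose of 0.01–3 mg/kg at lights-off, alongside a vehicle group.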

The mark [4] stands for this setting: bistrispropane buffer, pH 6.5, read-out: Solubility pH 6.5 Concentration.
Where [5] appears, read: bistrispropane buffer, pH 7.5, read-out: Solubility pH 7.5 Concentration.
[6] abbreviates: bistrispropane buffer, pH 6.0, read-out: Solubility pH 6.0 Concentration.
The mark [7] stands for this setting: bistrispropane buffer, pH 7.0, read-out: Solubility pH 7.0 Concentration.
Setting [8] is: bistrispropane buffer, pH 8.0, read-out: Solubility pH 8.0 Concentration.
Where [9] appears, read: glycylglycine buffer, pH 3.0, read-out: Solubility pH 3.0 Concentration.
Setting [10] is: glycylglycine buffer, pH 4.0, read-out: Solubility pH 4.0 Concentration.
The mark [11] stands for this setting: glycylglycine buffer, pH 5.0, read-out: Solubility pH 5.0 Concentration.

Converted amounts (≈) assume the structure as drawn. Like-named read-outs stand apart in the source and are kept apart here. Numbered stars: 1 amine (or outer) side, 2 acyl side, 3 side chain; on linkers, the order of the positions; unused ones are H or OH. Bridge positions count the residues as written; N and C are the ends. Peptide text beside a SMILES is read from it. * marks the point of attachment. C20 diacid = O=C(O)CCCCCCCCCCCCCCCCCCC(=O)*; γGlu = O=C(O)[C@H](CCC(=O)[*:2])N[*:1]

As to `CC[C@H](C)[C@H](NC(=O)[C@H](C)NC(=O)CNC(=O)[C@H](Cc1ccccc1)NC(=O)[C@H](CC(N)=O)NC(=O)[C@@H]1CCCN1C(=O)[C@H](CO)NC(=O)[C@H](CO)NC(=O)[C@H](Cc1c[nH]cn1)NC(=O)[C@H](CCCNC(=N)N)NC(=O)[C@H](CC(C)C)NC(=O)[C@H](Cc1ccccc1)NC(=O)[C@H](CC(N)=O)NC(=O)[C@H](C)NC(=O)[C@H](CC(C)C)NC(=O)[C@H](CCCNC(=N)N)NC(=O)[C@H](CCC(N)=O)NC(=O)[C@@H](NC(=O)[C@H](C)NC(=O)[C@@H]1CSSC[C@H](NC(=O)[C@H](CCCCN)NC(=O)CC[C@H](NC(=O)CCCCCCCCCCCCCCCCCCC(=O)O)C(=O)O)C(=O)N[C@@H](CC(N)=O)C(=O)N[C@@H]([C@@H](C)O)C(=O)N[C@@H](C)C(=O)N[C@@H]([C@@H](C)O)C(=O)N1)[C@@H](C)O)C(=O)N1CCC[C@H]1C(=O)N[C@@H](CO)C(=O)N[C@@H](CO)C(=O)N[C@H](C(=O)N[C@@H](CC(N)=O)C(=O)N[C@H](C(=O)NCC(=O)N[C@@H](CO)C(=O)N[C@@H](CCCCN)C(=O)N[C@H](C(=O)N[C@@H](Cc1ccc(O)cc1)C(N)=O)[C@@H](C)O)C(C)C)[C@@H](C)O` [Example 34], the solubility at 18 h in series [1] (setting [4]), in series [1] (setting [5]), in series [1] (setting [6]), in series [1] (setting [7]), in series [1] (setting [8]) and in series [1] (setting [9]) was at least 200 µM in each case. The solubility at 18 h in series [1] (setting [10]) and in series [1] (setting [11]) was at least 200 µM throughout. Also, in series [2], the “ThT pH 4.0 lag time (h)” value was found to be 35 h. Moreover, in series [3] (0-24 h), the “Food intake reduction 0-24 h 30 nmol/kg (%)” value is listed as 37%. Besides, the “Food intake reduction 24-48 h 30 nmol/kg (%)” value in series [3] (24-48 h) was 25%.
Take `CC[C@H](C)[C@H](NC(=O)[C@H](C)NC(=O)CNC(=O)[C@H](Cc1ccccc1)NC(=O)[C@H](CC(N)=O)NC(=O)[C@@H]1CCCN1C(=O)[C@H](CO)NC(=O)[C@H](CO)NC(=O)[C@H](Cc1c[nH]cn1)NC(=O)[C@H](CCCNC(=N)N)NC(=O)[C@H](CC(C)C)NC(=O)[C@H](Cc1ccccc1)NC(=O)[C@H](CC(N)=O)NC(=O)[C@H](C)NC(=O)[C@H](CC(C)C)NC(=O)[C@H](CCCNC(=N)N)NC(=O)[C@H](CCC(N)=O)NC(=O)[C@@H](NC(=O)[C@H](C)NC(=O)[C@@H]1CSSC[C@H](NC(=O)[C@H](CCCCN)NC(=O)CC[C@H](NC(=O)CCCCCCCCCCCCCCCCCCC(=O)O)C(=O)O)C(=O)N[C@@H](CC(N)=O)C(=O)N[C@@H]([C@@H](C)O)C(=O)N[C@@H](C)C(=O)N[C@@H]([C@@H](C)O)C(=O)N1)[C@@H](C)O)C(=O)N1CCC[C@H]1C(=O)N[C@@H](CO)C(=O)N[C@@H](CO)C(=O)N[C@H](C(=O)N[C@@H](CC(N)=O)C(=O)N[C@H](C(=O)NCC(=O)N[C@@H](Cc1c[nH]cn1)C(=O)N[C@@H](CC(N)=O)C(=O)N[C@H](C(=O)N[C@@H](Cc1ccc(O)cc1)C(N)=O)[C@@H](C)O)C(C)C)[C@@H](C)O` [Example 40]: the solubility at 18 h in series [1] (setting [4]), in series [1] (setting [5]), in series [1] (setting [6]), in series [1] (setting [7]), in series [1] (setting [8]) and in series [1] (setting [9]) was at least 200 µM throughout. Further, the solubility at 18 h in series [1] (setting [10]) and in series [1] (setting [11]) was at least 200 µM each time. Further, the “ThT pH 4.0 lag time (h)” value in series [2] is recorded as 26 h. In series [3] (0-24 h), the “Food intake reduction 0-24 h 30 nmol/kg (%)” value turned out to be 51%. Further, in series [3] (24-48 h), the “Food intake reduction 24-48 h 30 nmol/kg (%)” value amounted to 26%.
For the compound `CC[C@H](C)[C@H](NC(=O)[C@H](C)NC(=O)CNC(=O)[C@H](Cc1ccccc1)NC(=O)[C@H](CC(N)=O)NC(=O)[C@@H]1CCCN1C(=O)[C@H](CO)NC(=O)[C@H](CO)NC(=O)[C@H](Cc1c[nH]cn1)NC(=O)[C@H](CCCNC(=N)N)NC(=O)[C@H](CC(C)C)NC(=O)[C@H](Cc1ccccc1)NC(=O)[C@H](CC(=O)O)NC(=O)[C@H](C)NC(=O)[C@H](CC(C)C)NC(=O)[C@H](CCCNC(=N)N)NC(=O)[C@H](CCC(N)=O)NC(=O)[C@@H](NC(=O)[C@H](C)NC(=O)[C@@H]1CSSC[C@H](NC(=O)[C@@H](N)CCCCNC(=O)CC[C@H](NC(=O)CC[C@H](NC(=O)CCCCCCCCCCCCCCCCCCC(=O)O)C(=O)O)C(=O)O)C(=O)N[C@@H](CC(N)=O)C(=O)N[C@@H]([C@@H](C)O)C(=O)N[C@@H](C)C(=O)N[C@@H]([C@@H](C)O)C(=O)N1)[C@@H](C)O)C(=O)N1CCC[C@H]1C(=O)N[C@@H](CO)C(=O)N[C@@H](CO)C(=O)N[C@H](C(=O)N[C@@H](CC(N)=O)C(=O)N[C@H](C(=O)NCC(=O)N[C@@H](CO)C(=O)N[C@@H](CCCNC(=N)N)C(=O)N[C@H](C(=O)N[C@@H](Cc1ccc(O)cc1)C(N)=O)[C@@H](C)O)C(C)C)[C@@H](C)O` [Example 52, N-ε-1-{(S)-4-carboxy-4-[(S)-4-carboxy-4-(19-carboxynonadecanoylamino)butyrylamino]butyryl}-[Asp14,Arg17,Pro21,Pro27,Arg35]-human amylin], the solubility at 18 h is at least 200 µM in series [1] (setting [4]); 106 µM (≈ 483 µg/mL) in series [1] (setting [5]); at least 200 µM in series [1] (setting [6]); 155 µM (≈ 706 µg/mL) in series [1] (setting [7]); 110 µM (≈ 501 µg/mL) in series [1] (setting [8]); at least 200 µM in series [1] (setting [9]). Further, the solubility at 18 h in series [1] (setting [10]) and in series [1] (setting [11]) was at least 200 µM each time. In addition, the “ThT pH 4.0 lag time (h)” value in series [2] worked out at 41 h. Besides, in series [3] (3 nmol/kg, 0-24 h), the “Food intake reduction 0-24 h 3 nmol/kg (%)” value is on record as 25%. The “Food intake reduction 24-48 h 3 nmol/kg (%)” value in series [3] (3 nmol/kg, 24-48 h) amounted to 15%. In addition, the “Food intake reduction 0-24 h 30 nmol/kg (%)” value in series [3] (0-24 h) came out at 63%. Also, in series [3] (24-48 h), the “Food intake reduction 24-48 h 30 nmol/kg (%)” value amounted to 50%.
Turning to `CC[C@H](C)[C@H](NC(=O)[C@H](C)NC(=O)CNC(=O)[C@H](Cc1ccccc1)NC(=O)[C@H](CC(N)=O)NC(=O)[C@@H]1CCCN1C(=O)[C@H](CO)NC(=O)[C@H](CO)NC(=O)[C@H](Cc1c[nH]cn1)NC(=O)[C@H](CCCNC(=N)N)NC(=O)[C@H](CC(C)C)NC(=O)[C@H](Cc1ccccc1)NC(=O)[C@H](CC(N)=O)NC(=O)[C@H](C)NC(=O)[C@H](CC(C)C)NC(=O)[C@H](CCCNC(=N)N)NC(=O)[C@H](CCC(N)=O)NC(=O)[C@@H](NC(=O)[C@H](C)NC(=O)[C@@H]1CSSC[C@H](NC(=O)[C@H](CCCCN)NC(=O)CC[C@H](NC(=O)CCCCCCCCCCCCCCCCCCC(=O)O)C(=O)O)C(=O)N[C@@H](CC(N)=O)C(=O)N[C@@H]([C@@H](C)O)C(=O)N[C@@H](C)C(=O)N[C@@H]([C@@H](C)O)C(=O)N1)[C@@H](C)O)C(=O)N1CCC[C@H]1C(=O)N[C@@H](CO)C(=O)N[C@@H](CO)C(=O)N[C@H](C(=O)N1CCC[C@H]1C(=O)N[C@H](C(=O)NCC(=O)N[C@@H](CO)C(=O)N[C@@H](CCC(=O)O)C(=O)N[C@H](C(=O)N[C@@H](Cc1ccc(O)cc1)C(N)=O)[C@@H](C)O)C(C)C)[C@@H](C)O` [Example 28] ({C20 diacid-γGlu}-KCNTATCATQRLANFLRHSSPNFGAIPSSTPVGSETY-NH2; disulfide 2-7 (inferred)), the solubility at 18 h in series [1] (setting [4]), in series [1] (setting [5]), in series [1] (setting [6]), in series [1] (setting [7]), in series [1] (setting [8]) and in series [1] (setting [9]) was at least 200 µM each time. The solubility at 18 h in series [1] (setting [10]) and in series [1] (setting [11]) was at least 200 µM in each case. For the same compound, the “ThT pH 4.0 lag time (h)” value in series [2] is listed as 40 h. Further, the “Food intake reduction 0-24 h 30 nmol/kg (%)” value in series [3] (0-24 h) amounted to 49%. Moreover, the “Food intake reduction 24-48 h 30 nmol/kg (%)” value in series [3] (24-48 h) stood at 38%.
